Where two headings read alike, the source gives them in different places.
What was measured:
LNCaPerbB2 = assay: 6 day growth inhibition assay, LNCaP panel; settings: Homo sapiens, 144 h, read-out: IC50, LNCaPerbB2 transfected cell line
DU145 = assay: Growth inhibition in androgen independent prostate cancer cell line; settings: Homo sapiens
EGFR [1] = biological target: T1, EGFR (Homo sapiens, UniProt P00533); assay: EGFR kinase assay (ELISA, PGT substrate phosphorylation); type: biochemical; parameters: endogenous in cells; settings: 10 min exposure; read-out: IC50, EGFR inhibitory potency, purified enzyme assay
[2] = Degradation in serum at 37° C. by HPLC; type: in vitro ADME; settings: 24 h incubation in serum at 37° C.; release of 2 eq. of amine taken for 100%
Procedure: (§1) The degradation of double-arm combi-triazenes 5-9 has been investigated by HPLC. […] The rates of decomposition of bis-triazenes 7, 8 and 9 were measured by fluorescence spectroscopy by monitoring the formation of 1 (excitation: 279 and emission: 451). The determined half-lives ranged from 2 h for 7 and 8 to 3 h 20 min for 9.

NIH3T3 [3] = assay: Growth inhibition in isogenic NIH3T3 panel (double-arm combi-triazenes); type: cell-based; settings: Mus musculus, FIG. 14
[4] = Rate of decomposition by fluorescence spectroscopy (formation of amine 1); type: physicochemical; settings: excitation 279, emission 451
Procedure: as §1

NIH3T3/neu = assay: Growth inhibition in isogenic NIH3T3 panel (double-arm combi-triazenes); type: cell-based, mouse; settings: for IC50: Mus musculus, NIH3T3, FIG. 14; for fold selectivity for neu transfectant: vs NIH3T3
NIH3T3/Her14 = assay: as above; type: cell-based, mouse; settings: for IC50: Mus musculus, NIH3T3, FIG. 14; for fold selectivity for EGFR transfectant: vs NIH3T3
MDA-MB-468 cells [5] = assay: Reversibility of antiproliferative effect, SRB assay; type: cell-based, human
Procedure: (§2) In vitro growth inhibition assay: To study the effect of the compounds on growth factor stimulated-proliferation, cells were grown to 70% of confluence in 48-well plates. […] Cell growth was measured using the sulforhodamine B (SRB) assay (24). Briefly, following drug treatment, cells were fixed using 50 μl of cold trichloroacetic acid (50%) for 60 min at 4° C., washed five times with tap water, and stained for 30 min at room temperature with SRB (0.4%) and dissolved in acetic acid (0.5%). The plates were rinsed five times with 1% acetic acid and allowed to air dry. The resulting colored residue was dissolved in 200 μl of Tris base (10 mM), and the optical density read for each well at 450 nm using a Bio-Rad microplate reader (model 2550). […] Cell growth was measured using SRB assay as described previously.

NIH3T3neu [6] = biological target: T2, NIH3T3neu (UniProt P04626, cells depend on it, species not given); assay: Blockade of serum-stimulated growth, SRB assay (Table 1); type: cell-based, mouse; settings: serum-stimulated growth; read-out: Inhibition of growth stimulation of NIH3T3neu
T2 construct: other: serum-stimulated growth
Procedure: (§3) In vitro growth inhibition assay: To study the effect of the compounds on growth factor stimulated-proliferation, cells were grown to 70% of confluence in 48-well plates. They were subsequently washed twice with PBS, incubated in serum-free medium for 18 h and exposed to each drug+growth factors (EGF, TGFα, PDGF or serum) for 72 h. Cell growth was measured using the sulforhodamine B (SRB) assay (24). Briefly, following drug treatment, cells were fixed using 50 μl of cold trichloroacetic acid (50%) for 60 min at 4° C., washed five times with tap water, and stained for 30 min at room temperature with SRB (0.4%) and dissolved in acetic acid (0.5%). The plates were rinsed five times with 1% acetic acid and allowed to air dry. The resulting colored residue was dissolved in 200 μl of Tris base (10 mM), and the optical density read for each well at 450 nm using a Bio-Rad microplate reader (model 2550). […] Cell growth was measured using SRB assay as described previously.

NIH3T3 [7] = assay: as above; type: cell-based; settings: Mus musculus, read-out: Inhibition of growth stimulation of NIH3T3
Procedure: as §3

A431 = assay: Inhibition of basal growth (Table 1); type: cell-based; settings: Homo sapiens, A-431
Procedure: as §3

EGFR [8] = biological target: T1, EGFR; assay: EGFR kinase assay (ELISA, PGT substrate phosphorylation); type: biochemical; parameters: endogenous in cells; settings: Table 1, inhibition of EGFR kinase; read-out: EGFR Binding
Procedure: Kinase assays: The EGFR kinase assay is similar to the one described in previously published procedures (19, 20). Nunc Maxisorp 96-well plates were incubated overnight at 37° C. with 100 μl/well of 0.25 mg/ml poly (L-glutamic acid-L-tyrosine, 4:1) PGT in PBS. Excess PGT was removed and the plate was washed three times with wash buffer (Tween 20 (0.1%) in PBS). […] The compound was added and phosphorylation initiated by the addition of ATP 50 μM. After 8 min at room temperature with constant shaking, the reaction was terminated by aspiration of the reaction mixture and rinsing the plate four times with wash buffer. […] Antibody was removed by aspiration, and the plate washed four times with wash buffer.

NIH3T3neu [9] = assay: Blockade of serum-stimulated growth, SRB assay (Table 1); type: cell-based, mouse; settings: FIG. 12, 72 h
Procedure: as §3

MDA-MB-453 cells = assay: Reversibility of antiproliferative effect, SRB assay; type: cell-based, human
Procedure: as §2

MDA-MB-468 cells [10] = assay: Annexin V binding (apoptosis), flow cytometry; type: cell-based, human; settings: for levels of apoptosis: 5 μM, 24, 48 and 72 h
Procedure: Annexin V Binding: Cells were grown in 6-well plates until confluence and then incubated with the compounds for 24 h, 48 and 72 h. The cells were then harvested, washed twice with PBS, and centrifuged. Cells (10^5) were treated with annexin V-FITC and propidium iodide (PI) using the Apoptosis Detection Kit (BD Bioscience Pharmingen, USA) and the supplier's protocol. Annexin V-FITC and PI binding were analyzed by flow cytometry. Data were collected using logarithmic amplification of both the FL1 (FITC) and FL2 (PI) channels. Quadrant analysis of co-ordinate dot plots was performed with CellQuest software. Unstained cells were used to adjust the photomultiplier voltage and for compensation setting adjustment in order to eliminate spectral overlap between the FL1 and FL2 signals.

[11] = system: human breast carcinoma MDA-MB-468; assay: In vivo efficacy, MDA-MB-468 implanted in the mammary fat pad; parameters: species or system SCID mice
Procedure: In vivo studies: SCID mice were maintained as per McGill animal safety protocols. In a preliminary model, SCID mice housed in filtered cages were implanted subcutaneously (s.c.) with the human breast carcinoma MDA-MB-468 and treatment began when the tumors were palpable (8 mice/group). […] The tumor burdens were measured with a caliper and mice were weighed twice weekly. The study was later repeated with the MDA-MB-468 cells implanted in the mammary fat pad, a model that better mimics human breast carcinoma.

Water solubility = type: physicochemical
[12] = DU-145, 144 h, read-out: IC50, 6 day continued growth inhibition assay
[13] = DU-145, read-out: IC50, growth inhibition in DU145

T1 sequence (P00533 25-1210): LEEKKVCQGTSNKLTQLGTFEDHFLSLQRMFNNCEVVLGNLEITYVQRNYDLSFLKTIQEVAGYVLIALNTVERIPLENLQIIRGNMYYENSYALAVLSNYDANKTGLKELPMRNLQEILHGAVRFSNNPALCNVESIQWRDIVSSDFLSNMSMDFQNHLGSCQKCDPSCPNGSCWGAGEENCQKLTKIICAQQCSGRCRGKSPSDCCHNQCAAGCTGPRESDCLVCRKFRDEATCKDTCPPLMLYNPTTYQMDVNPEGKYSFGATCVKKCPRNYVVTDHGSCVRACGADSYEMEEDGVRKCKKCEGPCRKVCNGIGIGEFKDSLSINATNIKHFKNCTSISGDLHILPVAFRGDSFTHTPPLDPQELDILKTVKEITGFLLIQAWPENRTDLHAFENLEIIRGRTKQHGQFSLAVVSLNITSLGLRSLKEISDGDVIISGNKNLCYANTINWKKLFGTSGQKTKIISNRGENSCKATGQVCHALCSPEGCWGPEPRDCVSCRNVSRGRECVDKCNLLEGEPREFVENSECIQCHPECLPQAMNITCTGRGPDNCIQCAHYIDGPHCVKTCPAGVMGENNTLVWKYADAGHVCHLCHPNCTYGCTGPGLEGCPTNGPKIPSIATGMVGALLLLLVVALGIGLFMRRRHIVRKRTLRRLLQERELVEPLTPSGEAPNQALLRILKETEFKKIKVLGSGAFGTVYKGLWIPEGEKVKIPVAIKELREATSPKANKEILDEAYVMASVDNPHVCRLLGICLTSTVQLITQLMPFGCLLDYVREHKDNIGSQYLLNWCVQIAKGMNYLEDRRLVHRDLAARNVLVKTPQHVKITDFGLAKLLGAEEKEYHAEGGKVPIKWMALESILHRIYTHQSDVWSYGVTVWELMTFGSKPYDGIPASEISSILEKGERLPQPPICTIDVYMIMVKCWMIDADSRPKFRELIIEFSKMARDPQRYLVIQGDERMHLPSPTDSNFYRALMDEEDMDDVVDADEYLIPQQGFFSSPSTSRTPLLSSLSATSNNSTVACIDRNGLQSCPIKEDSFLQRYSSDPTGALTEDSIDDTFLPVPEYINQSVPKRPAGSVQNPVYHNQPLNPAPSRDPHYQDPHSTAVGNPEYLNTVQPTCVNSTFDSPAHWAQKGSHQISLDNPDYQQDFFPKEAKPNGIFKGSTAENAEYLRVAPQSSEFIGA

For Clc1cccc(Nc2ncnc3ccc(N=NNCc4ccccc4CNN=Nc4ccc5ncnc(Nc6cccc(Cl)c6)c5c4)cc23)c1 [Double-arm combi-triazene 5], the IC50 (LNCaPerbB2) was 18 µM, the IC50 (DU145; [12]) was 12 µM and the IC50 (EGFR [1]) was 7 µM. The “release of parent amine 1” value [2] was “negligible quantities”.
Clc1cccc(Nc2ncnc3ccc(N=NNCc4ccc(CNN=Nc5ccc6ncnc(Nc7cccc(Cl)c7)c6c5)cc4)cc23)c1 [Double-arm combi-triazene 6] gave an IC50 (LNCaPerbB2) of 37 µM, an IC50 (DU145; [12]) of 35 µM and an IC50 (EGFR [1]) of over 10 µM.
Clc1cccc(Nc2ncnc3ccc(N=NNCCN4CCN(CCNN=Nc5ccc6ncnc(Nc7cccc(Cl)c7)c6c5)CC4)cc23)c1 [Double-arm combi-triazene 7] gave an IC50 (NIH3T3 [3]) of 44 µM, an IC50 (LNCaPerbB2) of 9 µM and an IC50 (DU145; [12]) of 1.8 µM. The IC50 (DU145; [13]) was 2.8 µM, the IC50 (EGFR [1]) was 1 µM and the half-life [4] was 2 h. For the same compound, the IC50 (NIH3T3/neu) was 0.4 µM, the “fold selectivity for neu transfectant” value (NIH3T3/neu) was 110 fold and the IC50 (NIH3T3/Her14) was 0.5 µM. For the same compound, the “fold selectivity for EGFR transfectant” value (NIH3T3/Her14) was 88 fold.
Work on CN(CCNN=Nc1ccc2ncnc(Nc3cccc(Cl)c3)c2c1)CCN(C)CCNN=Nc1ccc2ncnc(Nc3cccc(Cl)c3)c2c1 [Double-arm combi-triazene 8] yielded an IC50 (NIH3T3 [3]) of 0.1 µM, an IC50 (LNCaPerbB2) of 6 µM and an IC50 (DU145; [12]) of 3.2 µM. It also gave an IC50 (DU145; [13]) of 1 µM, an IC50 (EGFR [1]) of 0.05 µM and a half-life [4] of 2 h. The IC50 (NIH3T3/neu) was 0.02 µM, the IC50 (NIH3T3/Her14) was 0.02 µM and the fold more active (NIH3T3/Her14; compared with double-arm combi-triazene 9) was 20 fold.
CN(CCNN=Nc1ccc2ncnc(Nc3cccc(Cl)c3)c2c1)CCNN=Nc1ccc2ncnc(Nc3cccc(Cl)c3)c2c1 [Double-arm combi-triazene 9] showed an IC50 (NIH3T3 [3]) of 2.3 µM, an IC50 (LNCaPerbB2) of 11 µM and an IC50 (DU145; [12]) of 2.3 µM. The IC50 (DU145; [13]) was 2.6 µM, the IC50 (EGFR [1]) was 0.003 µM and the “fold selectivity for neu transfectant” value (NIH3T3/neu) was 7 fold. The IC50 (NIH3T3/Her14) was 0.5 µM and the “fold selectivity for EGFR transfectant” value (NIH3T3/Her14) was 4 fold.
Nc1ccc2ncnc(Nc3cccc(Cl)c3)c2c1 [FD105, reference compound] gave an IC50 (MDA-MB-468 cells [5]; MDA-MB-468, SRB, read-out: IC50, growth inhibition, 120 h continuous exposure) of 23.6 µM and an IC50 (MDA-MB-468 cells [5]; read-out: IC50, growth inhibition, 2 h exposure followed by 120 h recovery, MDA-MB-468, SRB) of 192 µM.
In the case of CN(CCN(C)N=Nc1ccc2ncnc(Nc3cccc(Cl)c3)c2c1)CCN(C)N=Nc1ccc2ncnc(Nc3cccc(Cl)c3)c2c1 [JCF29], the GI50 (NIH3T3neu [6]) is reported as 43.3 µM, the IC50 (NIH3T3 [7]) is reported as 186 µM and the IC50 (A431) is reported as 38.1 µM. For the same compound, the IC50 (EGFR [8]) was 0.036 µM.
With CN(CCN(C)N=Nc1ccc2ncnc(Nc3cccc(Cl)c3)c2c1)N=Nc1ccc2ncnc(Nc3cccc(Cl)c3)c2c1 [JFC16] the GI50 (NIH3T3neu [6]) was 23.1 µM, the IC50 (NIH3T3 [7]) was 137 µM and the IC50 (EGFR [8]) was 0.29 µM.
With CN(C)CCN(C)N=Nc1ccc2ncnc(Nc3cccc(Cl)c3)c2c1 [JFC30] the GI50 (NIH3T3neu [6]) was 1.25 µM, the IC50 (NIH3T3 [7]) was 13.9 µM and the IC50 (A431) was 18.9 µM. It also gave an IC50 (EGFR [8]) of 0.014 µM.
In the case of CN(CCOCCN(C)N=Nc1ccc2ncnc(Nc3cccc(Cl)c3)c2c1)N=Nc1ccc2ncnc(Nc3cccc(Cl)c3)c2c1 [JFC31], the GI50 (NIH3T3neu [6]) is reported as under 0.75 µM, the “selectivity for NIH3T3 HER2 transfected cells in isogenic model” value (NIH3T3neu [9]) is reported as “significant selectivity” and the IC50 (NIH3T3 [7]) is reported as 4.65 µM. It also gave an IC50 (A431) of 4.79 µM and an IC50 (EGFR [8]) of 0.003 µM.
For COCCN(C)N=Nc1ccc2ncnc(Nc3cccc(Cl)c3)c2c1 [JFC32], the GI50 (NIH3T3neu [6]) was 1.65 µM, the IC50 (NIH3T3 [7]) was 112 µM and the IC50 (A431) was 23.4 µM. The IC50 (EGFR [8]) was 0.013 µM.
Compound C=CC(=O)Nc1ccc2ncnc(Nc3cccc(Br)c3)c2c1 [PD168393, reference compound] has an IC50 (MDA-MB-453 cells; Homo sapiens, MDA-MB-453, 120 h, MDA-MB-453, SRB, read-out: IC50, growth inhibition, 120 h continuous exposure) of 1.81 µM, an IC50 (MDA-MB-453 cells; Homo sapiens, MDA-MB-453, read-out: IC50, growth inhibition, 2 h exposure followed by 120 h recovery, MDA-MB-453, SRB) of 10.3 µM and an IC50 (MDA-MB-453 cells; MDA-MB-453, SRB, read-out: IC50, growth inhibition, 120 h continuous exposure) of 1.71 µM. For the same compound, the IC50 (MDA-MB-453 cells; read-out: IC50, growth inhibition, 2 h exposure followed by 120 h recovery, MDA-MB-453, SRB) was 11.5 µM and the levels of apoptosis (MDA-MB-468 cells [10]) was “barely detectable levels of apoptosis”.
In the case of Nc1ccc2ncnc(Nc3cccc(Br)c3)c2c1 [ZR01, reference compound], the levels of apoptosis (MDA-MB-468 cells [10]) is reported as “barely detectable levels of apoptosis”.
In the case of ClCCNc1ccc2ncnc(Nc3cccc(Cl)c3)c2c1 [ZR2003], the “in vivo antiproliferative activity” value ([11]; 50 mg/kg i.p. every 3-4 days, mammary fat pad) is reported as “strong antiproliferative activity”, the “in vivo potency compared with ZR2002” value ([11]; mouse, in vivo) is reported as “significantly more potent” and the “in vivo potency compared with FD105” value ([11]; same dose, p<0.05) is reported as “significant superior potency”. The IC50 (MDA-MB-468 cells [5]; Homo sapiens, MDA-MB-468, 120 h, read-out: IC50, growth inhibition, 120 h continuous exposure, MDA-MB-468, SRB) was 0.51 µM, the IC50 (MDA-MB-468 cells [5]; Homo sapiens, MDA-MB-468, read-out: IC50, growth inhibition, 2 h exposure followed by 120 h recovery, MDA-MB-468, SRB) was 4.81 µM and the “water solubility (in words)” value (Water solubility) was “more hydro-soluble”. For the same compound, the “concentration at which detectable levels of apoptosis start” value (MDA-MB-468 cells [10]) was 12 µM and the “cell death by apoptosis compared with FD105” value (MDA-MB-468 cells [10]; 12 μM, 48 h) was “significantly higher levels of cell death by apoptosis”.
